# Results from ChEMBL document CHEMBL4033674, “Bivalent O-glycoside mimetics with S/disulfide/Se substitutions and aromatic core: Synthesis, molecular modeling and inhibitory activity on biomedically relevant lectins in assays of increasing physiological relevance” (Bioorg Med Chem, 2017).
# Active and inactive are the calls of the source. The rule behind the calls is not given here.
# Assays:
# [1] = molecular target: Galectin-1 (Homo sapiens) (UniProt P09382); experiment: Inhibition of biotinylated proto type galectin-1 in human Capan-1 cells after 30 mins by FACS analysis relative to control; assay type: cell-based
# Sequence of Galectin-1 (Homo sapiens) (P09382 whole entry): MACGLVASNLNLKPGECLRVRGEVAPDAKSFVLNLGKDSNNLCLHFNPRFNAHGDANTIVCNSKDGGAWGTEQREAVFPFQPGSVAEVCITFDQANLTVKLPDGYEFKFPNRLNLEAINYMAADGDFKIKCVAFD
# [2] = molecular target: Galectin-3 (Homo sapiens) (UniProt P17931); experiment: Inhibition of biotinylated chimera type galectin-3 in human Capan-1 cells after 30 mins by FACS analysis relative to control; assay type: cell-based
# Sequence of Galectin-3 (Homo sapiens) (P17931 whole entry): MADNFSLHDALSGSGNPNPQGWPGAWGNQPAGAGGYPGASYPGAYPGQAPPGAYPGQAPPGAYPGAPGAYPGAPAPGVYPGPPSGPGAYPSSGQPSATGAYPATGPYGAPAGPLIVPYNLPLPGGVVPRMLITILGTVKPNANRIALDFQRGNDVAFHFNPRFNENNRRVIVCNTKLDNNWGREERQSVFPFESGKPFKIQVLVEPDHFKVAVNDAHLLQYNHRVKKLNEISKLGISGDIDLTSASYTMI
# [3] = molecular target: T1, Galectin-8 (Homo sapiens) (UniProt O00214); experiment: Inhibition of biotinylated tandem repeat type galectin-8 in human Capan-1 cells after 30 mins by FACS analysis relative to control; assay type: cell-based
# T1 sequence (whole entry): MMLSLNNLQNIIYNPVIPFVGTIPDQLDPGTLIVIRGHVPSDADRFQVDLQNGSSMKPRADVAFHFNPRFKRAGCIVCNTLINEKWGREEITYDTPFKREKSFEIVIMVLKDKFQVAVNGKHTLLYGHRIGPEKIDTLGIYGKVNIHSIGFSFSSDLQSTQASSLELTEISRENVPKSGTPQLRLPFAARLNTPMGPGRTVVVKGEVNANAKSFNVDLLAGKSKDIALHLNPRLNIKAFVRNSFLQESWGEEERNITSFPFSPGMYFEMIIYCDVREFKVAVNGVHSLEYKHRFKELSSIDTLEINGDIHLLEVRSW
# [4] = Inhibition of lectin in C57BL/6 mouse kidney using SK-5100 as substrate incubated for 30 mins by VAA staining based microscopic analysis
# Galectin-3 = Galectin-3 (Mus musculus, UniProt P16110); experiment: Inhibition of galectin-3 in C57BL/6 mouse jejunum using SK-5100 as substrate incubated for 30 mins by VAA staining based microscopic analysis
# Sequence of Galectin-3 (P16110 whole entry): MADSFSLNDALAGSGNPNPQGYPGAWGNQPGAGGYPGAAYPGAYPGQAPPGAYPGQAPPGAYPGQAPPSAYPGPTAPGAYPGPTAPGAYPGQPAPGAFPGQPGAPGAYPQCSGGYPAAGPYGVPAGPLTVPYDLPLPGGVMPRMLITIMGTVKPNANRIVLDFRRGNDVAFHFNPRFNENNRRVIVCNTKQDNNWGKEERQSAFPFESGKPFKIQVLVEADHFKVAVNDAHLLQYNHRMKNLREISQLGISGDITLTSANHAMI
# [5] = molecular target: T2, Galectin-8 (Mus musculus) (UniProt Q9JL15); experiment: Inhibition of galectin-8 in C57BL/6 mouse jejunum using SK-5100 as substrate incubated for 30 mins by VAA staining based microscopic analysis relative to free lactose
# T2 sequence (whole entry): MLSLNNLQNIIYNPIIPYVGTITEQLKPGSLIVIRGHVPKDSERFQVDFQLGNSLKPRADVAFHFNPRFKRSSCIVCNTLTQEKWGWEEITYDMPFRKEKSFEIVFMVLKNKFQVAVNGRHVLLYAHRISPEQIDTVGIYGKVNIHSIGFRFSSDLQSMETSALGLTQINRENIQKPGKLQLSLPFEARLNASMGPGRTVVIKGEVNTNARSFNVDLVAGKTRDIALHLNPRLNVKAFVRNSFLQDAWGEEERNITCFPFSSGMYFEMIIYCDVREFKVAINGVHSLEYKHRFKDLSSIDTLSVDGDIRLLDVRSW
# [6] = molecular target: Galectin-1 (Mus musculus) (UniProt P16045); experiment: Inhibition of galectin-1 in C57BL/6 mouse jejunum using SK-5100 as substrate incubated for 30 mins by VAA staining based microscopic analysis relative to free lactose
# Sequence of Galectin-1 (Mus musculus) (P16045 whole entry): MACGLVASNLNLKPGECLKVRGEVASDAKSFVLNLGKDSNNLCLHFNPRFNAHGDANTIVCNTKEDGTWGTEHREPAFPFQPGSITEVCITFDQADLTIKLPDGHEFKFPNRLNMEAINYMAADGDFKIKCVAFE
Structure (SMILES),fold change (FC) [1],fold change (FC) [2],fold change (FC) [3],further results
OC[C@H]1O[C@@H]([Se]Cc2ccc(C[Se][C@@H]3O[C@H](CO)[C@H](O)[C@H](O)[C@H]3O)c3ccccc23)[C@H](O)[C@@H](O)[C@H]1O,2.5 to 10,2.5 to 10,2.5 to 10,
O=C[C@H](O)[C@@H](O)[C@@H](O)[C@H](O)CO [GALACTOSE],,,,IC50 [4]: 5000 µM
OC[C@H]1O[C@@H](SSCc2cccc3c(CSS[C@@H]4O[C@H](CO)[C@H](O)[C@H](O)[C@H]4O)cccc23)[C@H](O)[C@@H](O)[C@H]1O,2.5 to 10,2.5 to 10,2.5 to 10,
OC[C@H]1O[C@@H](O[C@H]2[C@H](O)[C@@H](O)[C@H](SCc3ccc(CS[C@@H]4O[C@H](CO)[C@@H](O[C@@H]5O[C@H](CO)[C@H](O)[C@H](O)[C@H]5O)[C@H](O)[C@H]4O)c4ccccc34)O[C@@H]2CO)[C@H](O)[C@@H](O)[C@H]1O,,,,inhibition [1]: inactive; inhibition [2]: inactive; inhibition [3]: inactive; IC50 (Galectin-3): 50 µM; fold change (FC) [5]: 50
OC[C@H]1O[C@@H](O[C@H]2[C@H](O)[C@@H](O)[C@H](SSCc3ccc(CSS[C@@H]4O[C@H](CO)[C@@H](O[C@@H]5O[C@H](CO)[C@H](O)[C@H](O)[C@H]5O)[C@H](O)[C@H]4O)c4ccccc34)O[C@@H]2CO)[C@H](O)[C@@H](O)[C@H]1O,,,,inhibition [1]: Active; inhibition [2]: Active; inhibition [3]: Active; IC50 (Galectin-3): 25 µM; fold change (FC) [6]: 6; fold change (FC) [5]: 100
OC[C@H]1O[C@@H]([Se]Cc2cccc(C[Se][C@@H]3O[C@H](CO)[C@H](O)[C@H](O)[C@H]3O)c2)[C@H](O)[C@@H](O)[C@H]1O,2.5 to 10,2.5 to 10,2.5 to 10,
OC[C@H]1O[C@@H]([Se]Cc2ccc(C[Se][C@@H]3O[C@H](CO)[C@H](O)[C@H](O)[C@H]3O)cc2)[C@H](O)[C@@H](O)[C@H]1O,2.5 to 10,2.5 to 10,2.5 to 10,
OC[C@H]1O[C@@H](SCc2ccc(CS[C@@H]3O[C@H](CO)[C@H](O)[C@H](O)[C@H]3O)c3ccccc23)[C@H](O)[C@@H](O)[C@H]1O,2.5 to 10,2.5 to 10,2.5 to 10,
OC[C@H]1O[C@@H](SSCc2ccc(CSS[C@@H]3O[C@H](CO)[C@H](O)[C@H](O)[C@H]3O)c3ccccc23)[C@H](O)[C@@H](O)[C@H]1O,2.5 to 10,2.5 to 10,2.5 to 10,IC50 [4]: 500 to 1000 µM
OC[C@H]1O[C@@H]([Se]Cc2ccc3cc(C[Se][C@@H]4O[C@H](CO)[C@H](O)[C@H](O)[C@H]4O)ccc3c2)[C@H](O)[C@@H](O)[C@H]1O,2.5 to 10,2.5 to 10,2.5 to 10,IC50 [4]: 500 to 1000 µM
OC[C@H]1O[C@@H]([Se]Cc2cccc3c(C[Se][C@@H]4O[C@H](CO)[C@H](O)[C@H](O)[C@H]4O)cccc23)[C@H](O)[C@@H](O)[C@H]1O,2.5 to 10,2.5 to 10,2.5 to 10,
